Laboratory results as given in patent publication US12419961B2 (CNPharm Co., Ltd., priority 2021, dated 2025).

What was measured:
pancreatic cancer = pancreatic cancer patients, cited from earlier work
L929 = experiment: cell viability assay on L929 normal cell line; assay type: cell-based; conditions: FIG. 5B; normal mouse fibroblast cell line
[1] = tested on: PANC-1 pancreatic carcinoma tumors; experiment: anticancer efficacy in mouse xenograft model (tumor growth); assay type: in vivo, BALB/c mice
Description: (§1) Normally, non-treated group is injected with saline (NaCl solution) in anti-cancer efficacy study.

[2] = weight monitoring in mouse xenograft model; assay type: in vivo, BALB/c mice; conditions: FIG. 6B; PANC-1 model; dose: docetaxel standard, 20 mg/kg
Description: as §1

## O=c1[nH]cc(F)c(=O)[nH]1 [5-FU, 5-fluorouracil]
Pancreatic cancer
  survival rate, gemcitabine compared to 5-FU: 4.41 months
Pancreatic cancer; supportive care 2.5 months
  median overall survival rate compared to supportive care: 6 moths

## CC(=O)O[C@@]12CO[C@@H]1C[C@H](O)[C@@]1(C)C(=O)[C@H](O)C3=C(C)[C@@H](OC(=O)[C@H](O)[C@@H](NC(=O)OC(C)(C)C)c4ccccc4)C[C@@](O)([C@@H](OC(=O)c4ccccc4)[C@H]21)C3(C)C [DTX, docetaxel]
L929
  cytotoxicity toward normal cell line L929: low cytotoxicity
[1]; FIG. 6A; PANC-1 model; dose: docetaxel standard, 20 mg/kg; P<0.01 vs negative control
  tumor growth (mean tumor volume): significant inhibition in tumor growth
[2]
  body weight loss: significant body weight loss was observed

## Nc1ccn([C@@H]2O[C@H](CO)[C@@H](O)C2(F)F)c(=O)n1 [gemcitabine]
Pancreatic cancer
  survival rate, gemcitabine compared to 5-FU: 5.65 months

## docetaxel-aconitic anhydride conjugate [A3Tx]
[1]; FIG. 6A, PANC-1 model, dose: docetaxel standard, 20 mg/kg, P<0.01 vs negative control
  tumor growth (mean tumor volume): significant inhibition in tumor growth
[1]; FIG. 6A, PANC-1 model, dose: docetaxel standard, 20 mg/kg, P<0.01 vs negative control, listed as A3TX
  tumor growth (mean tumor volume): significantly delays tumor growth
